Measured values as given in EP0198522A1, “Heterocyclic herbicides” (SHELL INTERNATIONALE RESEARCH MAATSCHAPPIJ B.V., priority 1985, dated 1986).

Legend:
Format in all cases: in vivo
[1] = tested on: barnyard grass, Echinochloa crusgalli; assay: Herbicidal activity, post-emergence soil drench test; details: 10 kg/ha soil drench; assessed visually thirteen days after drenching; 0-9 scale, 0 = growth as untreated control, 9 = death
Method: (§1) To evaluate their herbicidal activity, compounds according to the invention were tested using as representative range of plants: maize, Zea mays (Mz); rice, Oryza sativa (R); barnyard grass, Echinochloa crusgalli (BG); oat, Avena sativa (0); linseed, Linum usitatissisum (L); mustard, Sinapsis alba (M); sugar beet, Beta vulgaris (SB) and soya bean, Glycine max (S).
(§2) The tests fall into two categories, pre-emergence and post-emergence. […] The post-emergence tests involved two types of test, viz., soil drench and foliar spray tests. In the soil drench tests the soil in which the seedling plants of the above species were growing was drenched with a liquid formulation containing a compound of the invention, and in the foliar spray tests the seedling plants were sprayed with such a formulation.
(§3) The soil used in the tests was a prepared horticultural loam.
(§4) These acetone solutions were diluted with water and the resulting formulations applied at dosage levels corresponding to 5 kg or 1 kg of active material per hectare in a volume equivalent to 600 litres per hectare in the soil spray and foliar spray test, and at a dosage of level equivalent to 10 kilograms of active material per hectare in a volume equivalent to approximately 3,000 litres per hectare in the soil drench tests.
(§5) In the pre-emexgence tests untreated sown soil and in the post-emergence tests untreated soil bearing seedling plants were used as controls.
(§6) The herbicidal effects of the test compounds were assessed visually twelve days after spraying the foliage and the soil, and thirteen days after drenching the soil and were recorded on a 0-9 scale. A rating 0 indicates growth as untreated control, a rating 9 indicates death. An increase of 1 unit on the linear scale approximates to a 10% increase in the level of effect.

[2] = tested on: linseed, Linum usitatissisum; assay: as above; details: 10 kg/ha soil drench; assessed visually thirteen days after drenching; 0-9 scale, 0 = growth as untreated control, 9 = death
Method: as §1, §2, §3, §4, §5, §6

maize, Zea mays [3] = assay: as above; details: 10 kg/ha soil drench; assessed visually thirteen days after drenching; 0-9 scale, 0 = growth as untreated control, 9 = death
Method: as §1, §2, §3, §4, §5, §6

mustard, Sinapsis alba [4] = assay: as above; details: 10 kg/ha soil drench; assessed visually thirteen days after drenching; 0-9 scale, 0 = growth as untreated control, 9 = death
Method: as §1, §2, §3, §4, §5, §6

oat, Avena sativa [5] = assay: as above; details: 10 kg/ha soil drench; assessed visually thirteen days after drenching; 0-9 scale, 0 = growth as untreated control, 9 = death
Method: as §1, §2, §3, §4, §5, §6

rice, Oryza sativa [6] = assay: as above; details: 10 kg/ha soil drench; assessed visually thirteen days after drenching; 0-9 scale, 0 = growth as untreated control, 9 = death
Method: as §1, §2, §3, §4, §5, §6

soya bean, Glycine max [7] = assay: as above; details: 10 kg/ha soil drench; assessed visually thirteen days after drenching; 0-9 scale, 0 = growth as untreated control, 9 = death
Method: as §1, §2, §3, §4, §5, §6

[8] = tested on: sugar beet, Beta vulgaris; assay: as above; details: 10 kg/ha soil drench; assessed visually thirteen days after drenching; 0-9 scale, 0 = growth as untreated control, 9 = death
Method: as §1, §2, §3, §4, §5, §6

[9] = tested on: barnyard grass, Echinochloa crusgalli; assay: Herbicidal activity, post-emergence foliar spray test; details: assessed visually twelve days after spraying, 0-9 scale, 0 = growth as untreated control, 9 = death
Method: as §1, §2, §3, §4, §5, §6

[10] = tested on: linseed, Linum usitatissisum; assay: as above; details: assessed visually twelve days after spraying, 0-9 scale, 0 = growth as untreated control, 9 = death
Method: as §1, §2, §3, §4, §5, §6

maize, Zea mays [11] = assay: as above; details: assessed visually twelve days after spraying, 0-9 scale, 0 = growth as untreated control, 9 = death
Method: as §1, §2, §3, §4, §5, §6

mustard, Sinapsis alba [12] = assay: as above; details: assessed visually twelve days after spraying, 0-9 scale, 0 = growth as untreated control, 9 = death
Method: as §1, §2, §3, §4, §5, §6

oat, Avena sativa [13] = assay: as above; details: assessed visually twelve days after spraying, 0-9 scale, 0 = growth as untreated control, 9 = death
Method: as §1, §2, §3, §4, §5, §6

rice, Oryza sativa [14] = assay: as above; details: assessed visually twelve days after spraying, 0-9 scale, 0 = growth as untreated control, 9 = death
Method: as §1, §2, §3, §4, §5, §6

soya bean, Glycine max [15] = assay: as above; details: assessed visually twelve days after spraying, 0-9 scale, 0 = growth as untreated control, 9 = death
Method: as §1, §2, §3, §4, §5, §6

[16] = tested on: sugar beet, Beta vulgaris; assay: as above; details: assessed visually twelve days after spraying, 0-9 scale, 0 = growth as untreated control, 9 = death
Method: as §1, §2, §3, §4, §5, §6

[17] = tested on: barnyard grass, Echinochloa crusgalli; assay: Herbicidal activity, pre-emergence test (soil spray); details: assessed visually twelve days after spraying, 0-9 scale, 0 = growth as untreated control, 9 = death
Method: as §1, §2, §3, §4, §5, §6

[18] = tested on: linseed, Linum usitatissisum; assay: as above; details: assessed visually twelve days after spraying, 0-9 scale, 0 = growth as untreated control, 9 = death
Method: as §1, §2, §3, §4, §5, §6

maize, Zea mays [19] = assay: as above; details: assessed visually twelve days after spraying, 0-9 scale, 0 = growth as untreated control, 9 = death
Method: as §1, §2, §3, §4, §5, §6

mustard, Sinapsis alba [20] = assay: as above; details: assessed visually twelve days after spraying, 0-9 scale, 0 = growth as untreated control, 9 = death
Method: as §1, §2, §3, §4, §5, §6

oat, Avena sativa [21] = assay: as above; details: assessed visually twelve days after spraying, 0-9 scale, 0 = growth as untreated control, 9 = death
Method: as §1, §2, §3, §4, §5, §6

rice, Oryza sativa [22] = assay: as above; details: assessed visually twelve days after spraying, 0-9 scale, 0 = growth as untreated control, 9 = death
Method: as §1, §2, §3, §4, §5, §6

soya bean, Glycine max [23] = assay: as above; details: assessed visually twelve days after spraying, 0-9 scale, 0 = growth as untreated control, 9 = death
Method: as §1, §2, §3, §4, §5, §6

[24] = tested on: sugar beet, Beta vulgaris; assay: as above; details: assessed visually twelve days after spraying, 0-9 scale, 0 = growth as untreated control, 9 = death
Method: as §1, §2, §3, §4, §5, §6

SMILES	Foliar spray BG (herbicidal effect rating) ([9]; Dosage 1 kg/ha)	Foliar spray BG (herbicidal effect rating) ([9]; Dosage 5 kg/ha)	Foliar spray L (herbicidal effect rating) ([10]; Dosage 1 kg/ha)	Foliar spray L (herbicidal effect rating) ([10]; Dosage 5 kg/ha)	Foliar spray Mz (herbicidal effect rating) (maize, Zea mays [11]; Dosage 1 kg/ha)	Foliar spray Mz (herbicidal effect rating) (maize, Zea mays [11]; Dosage 5 kg/ha)	Foliar spray M (herbicidal effect rating) (mustard, Sinapsis alba [12]; Dosage 1 kg/ha)	Foliar spray M (herbicidal effect rating) (mustard, Sinapsis alba [12]; Dosage 5 kg/ha)	Foliar spray O (herbicidal effect rating) (oat, Avena sativa [13]; Dosage 1 kg/ha)	Foliar spray O (herbicidal effect rating) (oat, Avena sativa [13]; Dosage 5 kg/ha)	Foliar spray R (herbicidal effect rating) (rice, Oryza sativa [14]; Dosage 1 kg/ha)	Foliar spray R (herbicidal effect rating) (rice, Oryza sativa [14]; Dosage 5 kg/ha)	Foliar spray S (herbicidal effect rating) (soya bean, Glycine max [15]; Dosage 1 kg/ha)	Foliar spray S (herbicidal effect rating) (soya bean, Glycine max [15]; Dosage 5 kg/ha)	Foliar spray SB (herbicidal effect rating) ([16]; Dosage 1 kg/ha)	Foliar spray SB (herbicidal effect rating) ([16]; Dosage 5 kg/ha)	Pre-emergence BG (herbicidal effect rating) ([17]; Dosage 1 kg/ha)	Pre-emergence BG (herbicidal effect rating) ([17]; Dosage 5 kg/ha)	Pre-emergence L (herbicidal effect rating) ([18]; Dosage 1 kg/ha)	Pre-emergence L (herbicidal effect rating) ([18]; Dosage 5 kg/ha)	other results
COC(=O)c1cc2cc3c(cc2nc1C1=NC(C)(C(C)C)C(=O)N1C(C)=O)OCO3 (stereo not drawn) [Example 3, Methyl-2-(1-acetyl-4-isopropyl-4-methyl-5-oxo-2-imidazolin-2-yl)-[1,3]-dioxolo[4,5-g] quinoline-3-carboxylate]	5	7	5	6	4	6	3	6	3	5	2	5	1	3	5	7	4	7	5	8	Soil drench 10/kg/ha BG (herbicidal effect rating) [1]: 7; Soil drench 10/kg/ha L (herbicidal effect rating) [2]: 6; Soil drench 10/kg/ha Mz (herbicidal effect rating) (maize, Zea mays [3]): 5; Soil drench 10/kg/ha M (herbicidal effect rating) (mustard, Sinapsis alba [4]): 7; Soil drench 10/kg/ha O (herbicidal effect rating) (oat, Avena sativa [5]): 6; Soil drench 10/kg/ha R (herbicidal effect rating) (rice, Oryza sativa [6]): 5; Soil drench 10/kg/ha S (herbicidal effect rating) (soya bean, Glycine max [7]): 0; Soil drench 10/kg/ha SB (herbicidal effect rating) [8]: 8; Pre-emergence Mz (herbicidal effect rating) (maize, Zea mays [19]; Dosage 1 kg/ha): 4; Pre-emergence Mz (herbicidal effect rating) (maize, Zea mays [19]; Dosage 5 kg/ha): 8; Pre-emergence M (herbicidal effect rating) (mustard, Sinapsis alba [20]; Dosage 1 kg/ha): 2; Pre-emergence M (herbicidal effect rating) (mustard, Sinapsis alba [20]; Dosage 5 kg/ha): 4; Pre-emergence O (herbicidal effect rating) (oat, Avena sativa [21]; Dosage 1 kg/ha): 4; Pre-emergence O (herbicidal effect rating) (oat, Avena sativa [21]; Dosage 5 kg/ha): 6; Pre-emergence R (herbicidal effect rating) (rice, Oryza sativa [22]; Dosage 1 kg/ha): 2; Pre-emergence R (herbicidal effect rating) (rice, Oryza sativa [22]; Dosage 5 kg/ha): 5; Pre-emergence S (herbicidal effect rating) (soya bean, Glycine max [23]; Dosage 1 kg/ha): 0; Pre-emergence S (herbicidal effect rating) (soya bean, Glycine max [23]; Dosage 5 kg/ha): 0; Pre-emergence SB (herbicidal effect rating) ([24]; Dosage 1 kg/ha): 4; Pre-emergence SB (herbicidal effect rating) ([24]; Dosage 5 kg/ha): 8
CC(C)C1(C)NC(c2cc3c(cc2C(=O)O)OCO3)=NC1=O (stereo not drawn) [Example 7, 2-(5-isopropyl-5-methyl-4-oxo-2-imidazolin-2-yl)-[1,3]-dioxolo [4,5-d]benzoic acid]	5	6	3	4	2	3	7	7	1	2	2	3	0	4	6	7	3	7	3	7	Pre-emergence Mz (herbicidal effect rating) (maize, Zea mays [19]; Dosage 1 kg/ha): 1; Pre-emergence Mz (herbicidal effect rating) (maize, Zea mays [19]; Dosage 5 kg/ha): 6; Pre-emergence M (herbicidal effect rating) (mustard, Sinapsis alba [20]; Dosage 1 kg/ha): 4; Pre-emergence M (herbicidal effect rating) (mustard, Sinapsis alba [20]; Dosage 5 kg/ha): 7; Pre-emergence O (herbicidal effect rating) (oat, Avena sativa [21]; Dosage 1 kg/ha): 0; Pre-emergence O (herbicidal effect rating) (oat, Avena sativa [21]; Dosage 5 kg/ha): 5; Pre-emergence R (herbicidal effect rating) (rice, Oryza sativa [22]; Dosage 1 kg/ha): 8; Pre-emergence R (herbicidal effect rating) (rice, Oryza sativa [22]; Dosage 5 kg/ha): 9; Pre-emergence S (herbicidal effect rating) (soya bean, Glycine max [23]; Dosage 1 kg/ha): 0; Pre-emergence S (herbicidal effect rating) (soya bean, Glycine max [23]; Dosage 5 kg/ha): 1; Pre-emergence SB (herbicidal effect rating) ([24]; Dosage 1 kg/ha): 7; Pre-emergence SB (herbicidal effect rating) ([24]; Dosage 5 kg/ha): 8
